# Reference: patent US10975013B2, “Method for producing vanillin” (T. HASEGAWA CO., LTD., priority 2018, dated 2021)
# How the values were obtained:
# Assay type in all cases: physicochemical
# [1] = Solubility of vanillin in various solvents at 25° C.
# [2] = Solubility of vanillin in solvent-heptane mixed solvents (1:1) at 25° C.
# [3] = Solubility of vanillin in dibutyl maleate-solvent mixed solvents (1:1) at 25° C.
compound,measurement,setting,value
COc1cc(C=O)ccc1O [vanillin],Solubility (mass %) of vanillin at 25° C.,[1]; solvent 1-Chlorotetradecane,0.4% mass %
same,Solubility (mass %) of vanillin at 25° C.,[1]; solvent Benzyl benzoate,6.6% mass %
same,Solubility (mass %) of vanillin at 25° C.,[1]; solvent Dibenzyl ether,5.5% mass %
same,Solubility (mass %) of vanillin at 25° C.,[1]; solvent Dibutyl adipate,10.9% mass %
same,Solubility (mass %) of vanillin at 25° C.,[1]; solvent Dibutyl fumarate,9.2% mass %
same,Solubility (mass %) of vanillin at 25° C.,[1]; solvent Dibutyl maleate,11.3% mass %
same,Solubility (mass %) of vanillin at 25° C.,[1]; solvent Dibutyl succinate,15.4% mass %
same,Solubility (mass %) of vanillin at 25° C.,[1]; solvent Diethyl phthalate,14.8% mass %
same,Solubility (mass %) of vanillin at 25° C.,[1]; solvent Diethyl sebacate,13.6% mass %
same,Solubility (mass %) of vanillin at 25° C.,[1]; solvent Diisobutyl adipate,7.7% mass %
same,Solubility (mass %) of vanillin at 25° C.,[1]; solvent Ethyl laurate,3.1% mass %
same,Solubility (mass %) of vanillin at 25° C.,[1]; solvent Isopropyl myristate,2.0% mass %
same,Solubility (mass %) of vanillin at 25° C.,[1]; solvent Tetraglyme,31.3% mass %
same,Solubility (mass %) of vanillin at 25° C.,[1]; solvent Tripropionin,18.1% mass %
same,Solubility (mass %) of vanillin at 25° C.,[1]; solvent n-Pentadecane,0.05% mass %
same,Solubility (mass %) of vanillin at 25° C.,[1]; solvent γ-Undecalactone,16.2% mass %
same,Solubility (mass %) of vanillin at 25° C.,[1]; solvent δ-Decalactone,17.4% mass %
same,Solubility (mass %) of vanillin in solvent-heptane mixed solvent (1:1) at 25° C.,[2]; Benzyl benzoate-heptane (1:1),1.2% mass %
same,Solubility (mass %) of vanillin in solvent-heptane mixed solvent (1:1) at 25° C.,[2]; Dibenzyl ether-heptane (1:1),0.9% mass %
same,Solubility (mass %) of vanillin in solvent-heptane mixed solvent (1:1) at 25° C.,[2]; Dibutyl adipate-heptane (1:1),1.4% mass %
same,Solubility (mass %) of vanillin in solvent-heptane mixed solvent (1:1) at 25° C.,[2]; Dibutyl fumarate-heptane (1:1),1.0% mass %
same,Solubility (mass %) of vanillin in solvent-heptane mixed solvent (1:1) at 25° C.,[2]; Dibutyl succinate-heptane (1:1),1.7% mass %
same,Solubility (mass %) of vanillin in solvent-heptane mixed solvent (1:1) at 25° C.,[2]; Diethyl phthalate-heptane (1:1),Oiling out
same,Solubility (mass %) of vanillin in solvent-heptane mixed solvent (1:1) at 25° C.,[2]; Diethyl sebacate-heptane (1:1),1.6% mass %
same,Solubility (mass %) of vanillin in solvent-heptane mixed solvent (1:1) at 25° C.,[2]; Diisobutyl adipate-heptane (1:1),1.4% mass %
same,Solubility (mass %) of vanillin in solvent-heptane mixed solvent (1:1) at 25° C.,[2]; Ethyl laurate-heptane (1:1),0.6% mass %
same,Solubility (mass %) of vanillin in solvent-heptane mixed solvent (1:1) at 25° C.,[2]; Isopropyl myristate-heptane (1:1),0.3% mass %
same,Solubility (mass %) of vanillin in solvent-heptane mixed solvent (1:1) at 25° C.,[2]; Tetraglyme-heptane (1:1),Oiling out
same,Solubility (mass %) of vanillin in solvent-heptane mixed solvent (1:1) at 25° C.,[2]; Tripropionin-heptane (1:1),Oiling out
same,Solubility (mass %) of vanillin in solvent-heptane mixed solvent (1:1) at 25° C.,[2]; dibutyl maleate-Heptane (1:1),1.7% mass %
same,Solubility (mass %) of vanillin in solvent-heptane mixed solvent (1:1) at 25° C.,[2]; γ-Undecalactone-heptane (1:1),3.6% mass %
same,Solubility (mass %) of vanillin in solvent-heptane mixed solvent (1:1) at 25° C.,[2]; δ-Decalactone-heptane (1:1),Oiling out
same,Solubility (mass %) of vanillin in dibutyl maleate-solvent mixed solvent (1:1) at 25° C.,[3]; dibutyl maleate-Cyclohexane (1:1),2.1% mass %
same,Solubility (mass %) of vanillin in dibutyl maleate-solvent mixed solvent (1:1) at 25° C.,[3]; dibutyl maleate-Heptane (1:1),1.7% mass %
same,Solubility (mass %) of vanillin in dibutyl maleate-solvent mixed solvent (1:1) at 25° C.,[3]; dibutyl maleate-Hexane (1:1),1.7% mass %
same,Solubility (mass %) of vanillin in dibutyl maleate-solvent mixed solvent (1:1) at 25° C.,[3]; dibutyl maleate-Isooctane (1:1),1.8% mass %
same,Solubility (mass %) of vanillin in dibutyl maleate-solvent mixed solvent (1:1) at 25° C.,[3]; dibutyl maleate-Petroleum ether (1:1),1.6% mass %
same,Solubility (mass %) of vanillin in dibutyl maleate-solvent mixed solvent (1:1) at 25° C.,[3]; dibutyl maleate-Toluene (1:1),5.5% mass %
